Test results as given in paper PMC10141580, “Cyclic Dichalcogenides Extend the Reach of Bioreductive Prodrugs to Harness Thiol/Disulfide Oxidoreductases: Applications to seco-Duocarmycins Targeting the Thioredoxin System” (ACS Central Science, 2023).
Several values for one entry are separate records, joined by “and”; a condition that tells them apart may be missing. Equal values may be shown once. Read-outs that look alike come from different tables or passages of the source.

Tested on: panel of 140 standard cancer cell lines
Test: ProliFiler-140 cancer cell line screen (CellTiterGlo, 72 h)
Format: cell-based
Protocol: Incubations were performed for 72 h before automated viability readout with CellTiterGlo (Figure 8).
End of Figure S11 (part 5 of 5): ProliFiler-140 cancer cell line screening for cytotoxicity of the prodrugs.
8-data-point dose response curves from CellTiter-Glo® viability readout.
ProliFiler-140 cell line panel part V

**Q.** COc1cc2cc(C(=O)N3C[C@@H](CCl)c4c3cc(OC(=O)N(CCC(=O)N3CCN(C)CC3)C3CCCCC3)c3ccccc43)[nH]c2c(OC)c1OC [P-CC60-CBI-TMI] was tested. Which IC50 (786-O (Kidney), read-out: IC50 [M] (ProliFiler-140)) did it give?
**A.** 1.18e-07 M and 1.2e-07 M

**Q.** What about the IC50 (786-O, read-out: IC50) of the same molecule?
**A.** 1.2e-07 M

**Q.** And the IC50 (A172 (Brain), read-out: IC50 [M] (ProliFiler-140))?
**A.** 5.74e-07 M and 5.7e-07 M

**Q.** What about the IC50 (A375 (Skin), read-out: IC50 [M] (ProliFiler-140)) of the same molecule?
**A.** 1.64e-07 M and 1.6e-07 M

**Q.** And the IC50 (A427 (Lung), read-out: IC50 [M] (ProliFiler-140))?
**A.** 8.2e-07 M and 8.23e-07 M

**Q.** What about the IC50 (A431 (Skin), read-out: IC50 [M] (ProliFiler-140)) of the same molecule?
**A.** 2.62e-07 M and 2.6e-07 M

**Q.** What about the IC50 (A498 (Kidney), read-out: IC50 [M] (ProliFiler-140)) of the same molecule?
**A.** 3e-07 M

**Q.** And the IC50 (A498, read-out: IC50)?
**A.** 3e-07 M

**Q.** And the IC50 (A549 (Lung), read-out: IC50 [M] (ProliFiler-140))?
**A.** 7.7e-07 M

**Q.** What about the IC50 (A549, read-out: IC50) of the same molecule?
**A.** 7.7e-07 M

**Q.** What about the IC50 (A2058 (Skin), read-out: IC50 [M] (ProliFiler-140)) of the same molecule?
**A.** 1e-07 M and 1.02e-07 M

**Q.** What about the IC50 (A2780 (Ovary), read-out: IC50 [M] (ProliFiler-140)) of the same molecule?
**A.** 8.9e-08 M and 8.89e-08 M

**Q.** And the IC50 (AsPC-1 (Pancreas), read-out: IC50 [M] (ProliFiler-140))?
**A.** 2.1e-06 M and 2.15e-06 M

**Q.** And the IC50 (BEN (Lung), read-out: IC50 [M] (ProliFiler-140))?
**A.** 1.4e-06 M and 1.42e-06 M

**Q.** What about the IC50 (BT-20 (Breast), read-out: IC50 [M] (ProliFiler-140)) of the same molecule?
**A.** 1.1e-06 M and 1.11e-06 M

**Q.** And the IC50 (BxPC-3 (Pancreas), read-out: IC50 [M] (ProliFiler-140))?
**A.** 6.62e-07 M and 6.6e-07 M

**Q.** What about the IC50 (CAKI-1, read-out: IC50) of the same molecule?
**A.** 3.3e-07 M

**Q.** And the IC50 (COR-L279 (Lung), read-out: IC50 [M] (ProliFiler-140))?
**A.** 7.4e-08 M and 7.36e-08 M

**Q.** And the IC50 (COV434 (Ovary), read-out: IC50 [M] (ProliFiler-140))?
**A.** 1.1e-07 M and 1.15e-07 M

**Q.** And the IC50 (Caki-1 (Kidney), read-out: IC50 [M] (ProliFiler-140))?
**A.** 3.29e-07 M and 3.3e-07 M

**Q.** And the IC50 (Caki-2 (Kidney), read-out: IC50 [M] (ProliFiler-140))?
**A.** 1.51e-06 M and 1.5e-06 M

**Q.** What about the IC50 (Calu-6 (Lung), read-out: IC50 [M] (ProliFiler-140)) of the same molecule?
**A.** 3.42e-07 M and 3.4e-07 M

**Q.** And the IC50 (Colo 205 (Colon), read-out: IC50 [M] (ProliFiler-140))?
**A.** 7.6e-07 M and 7.61e-07 M

**Q.** And the IC50 (DLD-1 (Colon), read-out: IC50 [M] (ProliFiler-140))?
**A.** 7.91e-07 M and 7.9e-07 M

**Q.** What about the IC50 (DU-145 (Prostate), read-out: IC50 [M] (ProliFiler-140)) of the same molecule?
**A.** 1.8e-07 M and 1.83e-07 M

**Q.** What about the IC50 (DV90 (Lung), read-out: IC50 [M] (ProliFiler-140)) of the same molecule?
**A.** 9e-08 M and 9.04e-08 M

**Q.** What about the IC50 (Detroit562 (Head/Neck), read-out: IC50 [M] (ProliFiler-140)) of the same molecule?
**A.** 3.15e-07 M and 3.2e-07 M

**Q.** And the IC50 (EFM-19 (Breast), read-out: IC50 [M] (ProliFiler-140))?
**A.** 9.6e-07 M and 9.62e-07 M

**Q.** What about the IC50 (EFM-192A (Breast), read-out: IC50 [M] (ProliFiler-140)) of the same molecule?
**A.** 1.8e-06 M and 1.78e-06 M

**Q.** What about the IC50 (EFO-27 (Ovary), read-out: IC50 [M] (ProliFiler-140)) of the same molecule?
**A.** 9e-07 M

**Q.** What about the IC50 (EPLC-272H (Lung), read-out: IC50 [M] (ProliFiler-140)) of the same molecule?
**A.** 5.08e-07 M and 5.1e-07 M

**Q.** And the IC50 (H4 (Brain), read-out: IC50 [M] (ProliFiler-140))?
**A.** 8.08e-08 M and 8.1e-08 M

**Q.** And the IC50 (H460 (Lung), read-out: IC50 [M] (ProliFiler-140))?
**A.** 5.1e-08 M and 5.12e-08 M

**Q.** What about the IC50 (H1299 (Lung), read-out: IC50 [M] (ProliFiler-140)) of the same molecule?
**A.** 7.27e-07 M and 7.3e-07 M

**Q.** What about the IC50 (H2228 (Lung), read-out: IC50 [M] (ProliFiler-140)) of the same molecule?
**A.** 3.99e-07 M and 4e-07 M

**Q.** And the IC50 (HCC38 (Breast), read-out: IC50 [M] (ProliFiler-140))?
**A.** 1.65e-07 M and 1.7e-07 M

**Q.** And the IC50 (HCC202 (Breast), read-out: IC50 [M] (ProliFiler-140))?
**A.** 9e-07 M and 8.97e-07 M

**Q.** What about the IC50 (HCC827 (Lung), read-out: IC50 [M] (ProliFiler-140)) of the same molecule?
**A.** 1.4e-06 M and 1.38e-06 M

**Q.** And the IC50 (HCC 1569 (Breast), read-out: IC50 [M] (ProliFiler-140))?
**A.** 9.9e-07 M and 9.93e-07 M

**Q.** What about the IC50 (HCT116 (Colon), read-out: IC50 [M] (ProliFiler-140)) of the same molecule?
**A.** 4.41e-07 M and 4.4e-07 M

**Q.** What about the IC50 (HCT116, read-out: IC50) of the same molecule?
**A.** 4.4e-07 M

**Q.** What about the IC50 (HCT-15 (Colon), read-out: IC50 [M] (ProliFiler-140)) of the same molecule?
**A.** 5.46e-07 M and 5.5e-07 M

**Q.** What about the IC50 (HCT-15, read-out: IC50) of the same molecule?
**A.** 5.5e-07 M

**Q.** What about the IC50 (HEC-1-A (Endometrium), read-out: IC50 [M] (ProliFiler-140)) of the same molecule?
**A.** 1.8e-06 M and 1.84e-06 M

**Q.** And the IC50 (HEC-1-B (Endometrium), read-out: IC50 [M] (ProliFiler-140))?
**A.** 3.3e-06 M and 3.29e-06 M

**Q.** What about the IC50 (HL-60 (Blood), read-out: IC50 [M] (ProliFiler-140)) of the same molecule?
**A.** 1e-07 M and 1.01e-07 M

**Q.** What about the IC50 (HL-60, read-out: IC50) of the same molecule?
**A.** 1e-07 M

**Q.** What about the IC50 (HT-29 (Colon), read-out: IC50 [M] (ProliFiler-140)) of the same molecule?
**A.** 1e-06 M and 9.98e-07 M

**Q.** And the IC50 (HT-29, read-out: IC50)?
**A.** 1e-06 M

**Q.** What about the IC50 (HT-1080 (Fibrosarcoma), read-out: IC50 [M] (ProliFiler-140)) of the same molecule?
**A.** 3.2e-07 M

**Q.** And the IC50 (Hep3B2.1-7 (Liver), read-out: IC50 [M] (ProliFiler-140))?
**A.** 1.3e-06 M and 1.34e-06 M

**Q.** What about the IC50 (Hs 746T (Stomach), read-out: IC50 [M] (ProliFiler-140)) of the same molecule?
**A.** 9.9e-07 M and 9.89e-07 M

**Q.** And the IC50 (HuH7 (Liver), read-out: IC50 [M] (ProliFiler-140))?
**A.** 6.47e-07 M and 6.5e-07 M

**Q.** And the IC50 (Hutu 80 (Duodenum), read-out: IC50 [M] (ProliFiler-140))?
**A.** 5.37e-08 M and 5.4e-08 M

**Q.** What about the IC50 (Ishikawa (Endometrium), read-out: IC50 [M] (ProliFiler-140)) of the same molecule?
**A.** 2.6e-08 M and 2.61e-08 M

**Q.** What about the IC50 (J82 (Bladder), read-out: IC50 [M] (ProliFiler-140)) of the same molecule?
**A.** 7.2e-07 M

**Q.** What about the IC50 (JIMT-1 (Breast), read-out: IC50 [M] (ProliFiler-140)) of the same molecule?
**A.** 1.6e-06 M

**Q.** And the IC50 (JVM-3 (Blood), read-out: IC50 [M] (ProliFiler-140))?
**A.** 3.14e-08 M and 3.1e-08 M

**Q.** What about the IC50 (Jurkat (Blood), read-out: IC50 [M] (ProliFiler-140)) of the same molecule?
**A.** 9.37e-08 M and 9.4e-08 M

**Q.** What about the IC50 (K562 (Blood), read-out: IC50 [M] (ProliFiler-140)) of the same molecule?
**A.** 1.1e-06 M and 1.11e-06 M

**Q.** What about the IC50 (KARPAS 299 (Blood), read-out: IC50 [M] (ProliFiler-140)) of the same molecule?
**A.** 7.07e-07 M and 7.1e-07 M

**Q.** And the IC50 (KG-1 (Blood), read-out: IC50 [M] (ProliFiler-140))?
**A.** 6.22e-07 M and 6.2e-07 M

**Q.** What about the IC50 (KG-1 a (Blood), read-out: IC50 [M] (ProliFiler-140)) of the same molecule?
**A.** 5.5e-07 M

**Q.** And the IC50 (KMS-12-BM (Blood), read-out: IC50 [M] (ProliFiler-140))?
**A.** 3.43e-07 M and 3.4e-07 M

**Q.** What about the IC50 (Kato III (Stomach), read-out: IC50 [M] (ProliFiler-140)) of the same molecule?
**A.** 1.6e-06 M and 1.62e-06 M

**Q.** And the IC50 (LN229 (Brain), read-out: IC50 [M] (ProliFiler-140))?
**A.** 7.23e-07 M and 7.2e-07 M

**Q.** What about the IC50 (LOU-NH91 (Lung), read-out: IC50 [M] (ProliFiler-140)) of the same molecule?
**A.** 3.1e-07 M and 3.07e-07 M

**Q.** What about the IC50 (LOVO (Colon), read-out: IC50 [M] (ProliFiler-140)) of the same molecule?
**A.** 2.22e-07 M and 2.2e-07 M

**Q.** What about the IC50 (LP-1 (Blood), read-out: IC50 [M] (ProliFiler-140)) of the same molecule?
**A.** 7.2e-07 M and 7.16e-07 M

**Q.** And the IC50 (LnCap (Prostate), read-out: IC50 [M] (ProliFiler-140))?
**A.** 8.9e-07 M and 8.94e-07 M

**Q.** And the IC50 (M07e (Blood), read-out: IC50 [M] (ProliFiler-140))?
**A.** 1.38e-07 M and 1.4e-07 M

**Q.** And the IC50 (MCAS (Ovary), read-out: IC50 [M] (ProliFiler-140))?
**A.** 8.2e-07 M and 8.18e-07 M

**Q.** What about the IC50 (MCF-7 (Breast), read-out: IC50 [M] (ProliFiler-140)) of the same molecule?
**A.** 2.1e-07 M and 2.15e-07 M

**Q.** And the IC50 (MDA MB 231 (Breast), read-out: IC50 [M] (ProliFiler-140))?
**A.** 7.4e-07 M

**Q.** And the IC50 (MDA MB 435 (Skin), read-out: IC50 [M] (ProliFiler-140))?
**A.** 1.1e-06 M and 1.08e-06 M

**Q.** And the IC50 (MDA-MB-468 (Breast), read-out: IC50 [M] (ProliFiler-140))?
**A.** 1.5e-07 M and 1.48e-07 M
